# Earlier results as cited in patent US8314091B2, “N-benzyl,N'-arylcarbonylpiperazine derivatives” (MSD OSS B.V., priority 2007, dated 2012).
# Key:
# [1] = system: tumours in an animal model of prostate cancer
# [2] = system: vascular smooth muscle cell proliferation and neointima formation; conditions: following balloon injury, in vitro and in vivo
# β-amyloid = conditions: in vivo
structure (smiles),measurement,setting,value
O=S(=O)(c1ccccc1)N(CC(F)(F)F)c1ccc(C(O)(C(F)(F)F)C(F)(F)F)cc1 [Example T0901317],effect on progression of tumours,[1],delayed progression of tumours
same,effect on vascular smooth muscle cell proliferation and neointima formation,[2],inhibit vascular smooth muscle cell proliferation and neointima formation
same,deposition of β-amyloid,β-amyloid,lower deposition of β-amyloid
same,memory,β-amyloid,improve memory
